Legend:
[1] = target: BDNF/NT-3 growth factors receptor (Homo sapiens, UniProt Q16620); assay: Inhibition of TrkB (unknown origin) using Tyr1 peptide as substrate in presence of ATP measured after 2 hrs by FRET-based Z-Lyte kinase assay
[2] = target: High affinity nerve growth factor receptor (Homo sapiens, UniProt P04629); assay: Inhibition of TrkA (unknown origin) using Tyr1 peptide as substrate in presence of ATP measured after 2 hrs by FRET-based Z-Lyte kinase assay
BaF3 [3] = assay: Antiproliferative activity against mouse BaF3 cells transfected with wild type ETV6-NTRK3 (unknown origin) assessed as cell viability measured after 72 hrs by Micro plate reader method; conditions: BaF3, 72 h
BaF3 [4] = assay: Antiproliferative activity against mouse BaF3 cells transfected with wild type ETV6-NTRK2 (unknown origin) assessed as cell viability measured after 72 hrs by Micro plate reader method; conditions: BaF3, 72 h
BaF3 [5] = assay: Antiproliferative activity against mouse BaF3 cells transfected with wild type CD74-NTRK1 (unknown origin) assessed as cell viability measured after 72 hrs by Micro plate reader method; conditions: BaF3, 72 h
BaF3 [6] = assay: Antiproliferative activity against mouse BaF3 cells transfected with wild type CD74-NTRK1 (unknown origin) harbouring G595R mutation assessed as cell viability measured after 72 hrs by Micro plate reader method; assay type: functional, cell-based; conditions: BaF3, 72 h
BaF3 [7] = assay: Antiproliferative activity against mouse BaF3 cells transfected with wild type ETV6-NTRK2 (unknown origin) harbouring G639R mutation assessed as cell viability measured after 72 hrs by Micro plate reader method; assay type: functional, cell-based; conditions: BaF3, 72 h
BaF3 [8] = assay: Antiproliferative activity against mouse BaF3 cells assessed as cell viability measured after 72 hrs by Micro plate reader method; assay type: functional, cell-based; conditions: BaF3, 72 h
BaF3 [9] = assay: Antiproliferative activity against mouse BaF3 cells transfected with wild type CD74-NTRK1 (unknown origin) harbouring G667C mutation assessed as cell viability measured after 72 hrs by Micro plate reader method; assay type: functional, cell-based; conditions: BaF3, 72 h
BaF3 [10] = assay: Antiproliferative activity against mouse BaF3 cells transfected with wild type ETV6-NTRK3 (unknown origin) harbouring G623R mutation assessed as cell viability measured after 72 hrs by Micro plate reader method; assay type: functional, cell-based; conditions: BaF3, 72 h
BaF3 [11] = assay: Antiproliferative activity against mouse BaF3 cells transfected with wild type ETV6-NTRK3 (unknown origin) harbouring G696A mutation assessed as cell viability measured after 72 hrs by Micro plate reader method; assay type: functional, cell-based; conditions: BaF3, 72 h

Chain of BDNF/NT-3 growth factors receptor (Q16620 whole entry): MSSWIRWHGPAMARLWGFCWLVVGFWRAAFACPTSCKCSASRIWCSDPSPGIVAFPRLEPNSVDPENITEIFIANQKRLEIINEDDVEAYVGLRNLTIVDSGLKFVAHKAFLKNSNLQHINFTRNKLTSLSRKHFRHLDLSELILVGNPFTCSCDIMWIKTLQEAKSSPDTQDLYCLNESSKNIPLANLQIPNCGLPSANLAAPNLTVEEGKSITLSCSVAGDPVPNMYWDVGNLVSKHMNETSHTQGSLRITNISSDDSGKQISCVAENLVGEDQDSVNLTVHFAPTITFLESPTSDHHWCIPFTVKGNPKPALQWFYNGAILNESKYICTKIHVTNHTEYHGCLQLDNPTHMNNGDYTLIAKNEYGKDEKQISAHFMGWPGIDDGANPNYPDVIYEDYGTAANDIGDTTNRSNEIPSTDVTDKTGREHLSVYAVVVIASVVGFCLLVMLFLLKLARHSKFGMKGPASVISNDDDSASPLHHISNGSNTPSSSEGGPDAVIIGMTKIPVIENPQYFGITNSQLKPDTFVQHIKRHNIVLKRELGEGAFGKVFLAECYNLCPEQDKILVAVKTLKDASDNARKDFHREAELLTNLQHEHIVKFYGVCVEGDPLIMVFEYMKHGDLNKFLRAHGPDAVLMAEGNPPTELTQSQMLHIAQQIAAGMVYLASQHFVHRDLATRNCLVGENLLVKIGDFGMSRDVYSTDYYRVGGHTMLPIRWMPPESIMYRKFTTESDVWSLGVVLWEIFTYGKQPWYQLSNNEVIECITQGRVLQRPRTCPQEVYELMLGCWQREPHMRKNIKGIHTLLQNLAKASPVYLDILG
Chain of High affinity nerve growth factor receptor (P04629 whole entry): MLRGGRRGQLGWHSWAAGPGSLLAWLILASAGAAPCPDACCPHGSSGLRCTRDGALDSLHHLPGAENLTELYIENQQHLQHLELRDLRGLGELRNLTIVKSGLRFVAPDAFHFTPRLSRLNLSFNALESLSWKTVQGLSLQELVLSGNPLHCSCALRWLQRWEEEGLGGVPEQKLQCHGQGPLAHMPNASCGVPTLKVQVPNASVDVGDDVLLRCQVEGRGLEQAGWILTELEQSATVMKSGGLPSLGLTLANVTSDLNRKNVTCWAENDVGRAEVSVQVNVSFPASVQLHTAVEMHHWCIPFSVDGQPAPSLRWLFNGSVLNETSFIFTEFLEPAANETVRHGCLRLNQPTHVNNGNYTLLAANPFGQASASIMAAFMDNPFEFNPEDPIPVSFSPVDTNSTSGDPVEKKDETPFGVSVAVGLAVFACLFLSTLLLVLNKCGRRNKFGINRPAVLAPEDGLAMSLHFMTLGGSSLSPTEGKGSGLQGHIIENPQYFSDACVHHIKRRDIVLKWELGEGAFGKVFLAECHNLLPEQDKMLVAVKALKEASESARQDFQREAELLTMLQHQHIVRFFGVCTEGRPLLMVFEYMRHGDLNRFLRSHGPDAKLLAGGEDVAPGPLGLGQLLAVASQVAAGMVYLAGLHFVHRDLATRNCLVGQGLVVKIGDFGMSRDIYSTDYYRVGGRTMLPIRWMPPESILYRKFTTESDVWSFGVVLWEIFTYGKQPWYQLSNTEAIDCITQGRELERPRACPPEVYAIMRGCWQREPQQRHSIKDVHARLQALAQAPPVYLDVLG

Row | SMILES | IC50 [1] | IC50 [2] | other results
1 | Fc1cc(Br)cc(CNc2ccc3[nH]nc(/C=C/c4ccccn4)c3c2)c1 | 30.6 nM | 10.4 nM | 
2 | Fc1cc(Cl)cc(CNc2ccc3[nH]nc(/C=C/c4ccccn4)c3c2)c1 | 15.4 nM | 2 nM | 
3 | Fc1cc(F)cc(Nc2ccc3[nH]nc(/C=C/c4ccccn4)c3c2)c1 | 30.7 nM |  | 
4 | Fc1cc(F)cc(Cc2ccc3[nH]nc(/C=C/c4ccccn4)c3c2)c1 | 1.3 nM | 7.6 nM | IC50 (BaF3 [3]): 125 nM; IC50 (BaF3 [4]): 161 nM; IC50 (BaF3 [5]): 133 nM
5 | Fc1cc(CNc2ccc3[nH]nc(/C=C/c4ccccn4)c3c2)cc(C(F)(F)F)c1 | 245 nM | 76.3 nM | 
6 | Fc1ccc(CNc2ccc3[nH]nc(/C=C/c4ccccn4)c3c2)cc1 | 78.9 nM | 49.3 nM | 
7 | O=C(Nc1cc(F)cc(F)c1)c1ccc2[nH]nc(/C=C/c3ccccn3)c2c1 | > 1000 nM | > 1000 nM | 
8 | CN(Cc1cc(F)cc(F)c1)c1ccc2[nH]nc(/C=C/c3ccccn3)c2c1 | 8 nM | 29 nM | 
9 | Fc1cc(F)cc(Oc2ccc3[nH]nc(/C=C/c4ccccn4)c3c2)c1 | 4 nM | 23.3 nM | 
10 | Fc1cc(F)cc(CCc2ccc3[nH]nc(/C=C/c4ccccn4)c3c2)c1 | 8.5 nM | 3.7 nM | 
11 | O=C(Nc1ccc2[nH]nc(/C=C/c3ccccn3)c2c1)c1cc(F)cc(F)c1 | 244 nM | 189 nM | 
12 | COc1cc(F)cc(CNc2ccc3[nH]nc(/C=C/c4ccccn4)c3c2)c1 | 26.7 nM | 3.1 nM | 
13 | O=C(Nc1cnn2ccc(N3CCC[C@@H]3c3cc(F)ccc3F)nc12)N1CC[C@H](O)C1 [LAROTRECTINIB] |  |  | IC50 (BaF3 [6]): 539 nM; IC50 (BaF3 [7]): 2240 nM; IC50 (BaF3 [8]): > 10000 nM; IC50 (BaF3 [3]): 13 nM; IC50 (BaF3 [9]): 184 nM; IC50 (BaF3 [10]): 1200 nM; IC50 (BaF3 [4]): 40 nM; IC50 (BaF3 [11]): 54 nM; IC50 (BaF3 [5]): 16 nM
14 | Cc1cc(F)cc(CNc2ccc3[nH]nc(/C=C/c4ccccn4)c3c2)c1 | 50.1 nM | 10.4 nM | 
15 | CN(Cc1ccc2[nH]nc(/C=C/c3ccccn3)c2c1)c1cc(F)cc(F)c1 | 42.5 nM | 12 nM | 
16 | Fc1cc(F)cc(-c2ccc3[nH]nc(/C=C/c4ccccn4)c3c2)c1 | 729 nM | 254 nM | 
17 | Fc1cc(F)cc(C#Cc2ccc3[nH]nc(/C=C/c4ccccn4)c3c2)c1 | > 1000 nM | > 1000 nM | 
18 | Fc1cc(F)cc(Sc2ccc3[nH]nc(/C=C/c4ccccn4)c3c2)c1 | 4.8 nM | 23.9 nM | 
19 | C(=C\c1n[nH]c2ccc(NCc3ccccc3)cc12)/c1ccccn1 | 1.1 nM | 10.6 nM | 
20 | Fc1cccc(CNc2ccc3[nH]nc(/C=C/c4ccccn4)c3c2)c1 | 4.9 nM | 5.7 nM | 
21 | Fc1cc(F)cc(NCc2ccc3[nH]nc(/C=C/c4ccccn4)c3c2)c1 | 3.5 nM | 10.4 nM | 
22 | Fc1cc(F)cc(COc2ccc3[nH]nc(/C=C/c4ccccn4)c3c2)c1 | 1.2 nM | 13.2 nM | IC50 (BaF3 [3]): 118 nM; IC50 (BaF3 [4]): 169 nM; IC50 (BaF3 [5]): 133 nM
23 | CN(c1cc(F)cc(F)c1)c1ccc2[nH]nc(/C=C/c3ccccn3)c2c1 | 23.6 nM | 40.6 nM | 
24 | Fc1cc(F)cc(CNc2ccc3[nH]nc(/C=C/c4ccccn4)c3c2)c1 | 8.3 nM | 1.5 nM | IC50 (BaF3 [8]): 489 nM; IC50 (BaF3 [3]): 14 nM; IC50 (BaF3 [4]): 34 nM; IC50 (BaF3 [5]): 35 nM
25 | Fc1cc(F)cc(OCc2ccc3[nH]nc(/C=C/c4ccccn4)c3c2)c1 | 7.2 nM | 20.9 nM | 
26 | Fc1ccccc1CNc1ccc2[nH]nc(/C=C/c3ccccn3)c2c1 | 36.2 nM | 8.8 nM | 
27 | N#Cc1cc(F)cc(CNc2ccc3[nH]nc(/C=C/c4ccccn4)c3c2)c1 | 17.7 nM | 3.5 nM | 
